Measurements taken from ChEMBL document CHEMBL1126299, “Synthesis and structure-activity relationships of cephalosporins with C-3' catechol-containing residues” (J Med Chem, 1992).
Values after ≈ are worked out from the molar mass of the structure shown.

Assays:
Staphylococcus aureus [1] = test: microbe, parasite or virus in culture
Citrobacter freundii [2] = test: microbe, parasite or virus in culture
Description: Minimum inhibitory concentration in Citrobacter freundii, DR 382031 constitutive depressed type 1

Citrobacter freundii [3] = test: microbe, parasite or virus in culture; remark: listed apart in the source
Description: Minimum inhibitory concentration in Citrobacter freundii, I+382010 inducible type 1 lactamase producer

Enterobacter cloacae [4] = test: microbe, parasite or virus in culture
Description: Minimum inhibitory concentration in Enterobacter cloacae, DR 401108 constitutive depressed type 1 lactamase producer

Escherichia coli [5] = test: microbe, parasite or virus in culture
Description: In vitro minimum inhibitory concentration against Escherichia coli (DC0 parent organism).

Enterobacter cloacae [6] = test: microbe, parasite or virus in culture; remark: listed apart in the source
Description: Minimum inhibitory concentration in Enterobacter cloacae, P99+ constitutive depressed type 1 lactamase producer

Enterobacter cloacae [7] = test: microbe, parasite or virus in culture; remark: listed apart in the source
Description: Minimum inhibitory concentration in Enterobacter cloacae, I+401029 inducible type 1 lactamase producer

Enterobacter cloacae [8] = test: microbe, parasite or virus in culture; remark: listed apart in the source
Description: Minimum inhibitory concentration in Enterobacter cloacae, P99- inducible type 1 lactamase producer

Escherichia coli [9] = test: microbe, parasite or virus in culture; remark: listed apart in the source
Description: In vitro minimum inhibitory concentration against Escherichia coli (DC2 permeability mutant).

Pseudomonas aeruginosa [10] = test: microbe, parasite or virus in culture
Description: Minimum inhibitory concentration in Pseudomonas aeruginosa, 18S inducible type 1 lactamase producer

Pseudomonas aeruginosa [11] = test: microbe, parasite or virus in culture; remark: listed apart in the source
Description: In vitro minimum inhibitory concentration against Pseudomonas aeruginosa (PU21).

Pseudomonas aeruginosa [12] = test: microbe, parasite or virus in culture; remark: listed apart in the source
Description: Minimum inhibitory concentration in Pseudomonas aeruginosa, 18SH constitutive depressed type 1 lactamase producer

Pseudomonas aeruginosa [13] = test: microbe, parasite or virus in culture; remark: listed apart in the source
Description: Minimum inhibitory concentration in Pseudomonas aeruginosa,799WT parent organism

Providencia stuartii [14] = test: microbe, parasite or virus in culture
Description: Minimum inhibitory concentration in Pseudomonas stuartii, DR 442049 constitutive depressed type 1 lactamase producer

Providencia stuartii [15] = test: microbe, parasite or virus in culture; remark: listed apart in the source
Description: Minimum inhibitory concentration in Pseudomonas stuartii, I+442019 inducible type 1 lactamase producer

Staphylococcus aureus [16] = test: microbe, parasite or virus in culture; remark: listed apart in the source
Pseudomonas aeruginosa [17] = test: microbe, parasite or virus in culture; remark: listed apart in the source
Description: Minimum inhibitory concentration in Pseudomonas aeruginosa,799/61 permeability mutant

[18] = The compound was evaluated for area under the curve in marmosets; format: ADME; conditions: callithrix, in vivo
[19] = The half life period in marmosets; format: ADME; conditions: callithrix, in vivo
Pseudomonas aeruginosa [20] = test: The compound was tested for minimum inhibitory concentration in Pseudomonas aeruginosa,799WT parent organism; format: functional
Staphylococcus aureus [21] = test: The compound was tested for minimum inhibitory concentration in Staphylococcus aureus Oxford penicillin sensitive Staphylococcus aureus; format: functional
Staphylococcus aureus [22] = test: The compound was tested for minimum inhibitory concentration in Staphylococcus aureus,147N penicillin sensitive Staphylococcus aureus; format: functional

Description for physchem: The dissociation constant of compound was tested for beta-Lactamase stability

Molecule `Nc1nc(/C(=N/OC(C(=O)O)c2ccccc2)C(=O)N[C@@H]2C(=O)N3C(C(=O)O)=C(CNC(=O)c4cc(O)c(O)c(Br)c4)CSC23)cs1` (some centres not stated) has an MIC (Staphylococcus aureus [1]) of 16 µg/mL (≈ 21.4 µM), an MIC (Citrobacter freundii [2]) of 4 µg/mL (≈ 5.35 µM) and an MIC (Citrobacter freundii [3]) of 0.008 µg/mL (≈ 0.0107 µM). The MIC (Enterobacter cloacae [4]) was > 128 µg/mL, the MIC (Escherichia coli [5]) was 0.008 µg/mL (≈ 0.0107 µM) and the MIC (Enterobacter cloacae [6]) was 2 µg/mL (≈ 2.68 µM). For the same molecule, the MIC (Enterobacter cloacae [7]) was 0.03 µg/mL (≈ 0.0401 µM), the MIC (Enterobacter cloacae [8]) was 0.06 µg/mL (≈ 0.0803 µM) and the MIC (Escherichia coli [9]) was 0.008 µg/mL (≈ 0.0107 µM). For the same molecule, the MIC (Pseudomonas aeruginosa [10]) was 0.008 µg/mL (≈ 0.0107 µM), the MIC (Pseudomonas aeruginosa [11]) was 0.015 µg/mL (≈ 0.0201 µM) and the MIC (Pseudomonas aeruginosa [12]) was 0.03 µg/mL (≈ 0.0401 µM). The MIC (Pseudomonas aeruginosa [13]) was 0.015 µg/mL (≈ 0.0201 µM), the MIC (Providencia stuartii [14]) was 0.25 µg/mL (≈ 0.334 µM) and the MIC (Providencia stuartii [15]) was 0.06 µg/mL (≈ 0.0803 µM). It also gave an MIC (Staphylococcus aureus [16]) of 16 µg/mL (≈ 21.4 µM) and an MIC (Pseudomonas aeruginosa [17]) of 0.008 µg/mL (≈ 0.0107 µM).
With `CCO/N=C(\C(=O)N[C@@H]1C(=O)N2C(C(=O)O)=C(CNC(=O)c3cc(O)c(O)c(Br)c3)CSC12)c1csc(N)n1` (some centres not stated) the AUC [18] was 16.97 mg/h/L, the half-life [19] was 40.2 min and the pKa (physchem) was 6.9. The MIC (Staphylococcus aureus [1]) was 4 µg/mL (≈ 6.24 µM), the MIC (Citrobacter freundii [2]) was 16 µg/mL (≈ 24.9 µM) and the MIC (Citrobacter freundii [3]) was 0.008 µg/mL (≈ 0.0125 µM). The MIC (Enterobacter cloacae [4]) was 128 µg/mL (≈ 200 µM), the MIC (Escherichia coli [5]) was 0.008 µg/mL (≈ 0.0125 µM) and the MIC (Enterobacter cloacae [6]) was 8 µg/mL (≈ 12.5 µM). For the same molecule, the MIC (Enterobacter cloacae [7]) was 0.03 µg/mL (≈ 0.0468 µM), the MIC (Enterobacter cloacae [8]) was 0.015 µg/mL (≈ 0.0234 µM) and the MIC (Escherichia coli [9]) was 0.008 µg/mL (≈ 0.0125 µM). The MIC (Pseudomonas aeruginosa [10]) was 0.008 µg/mL (≈ 0.0125 µM), the MIC (Pseudomonas aeruginosa [11]) was 0.06 µg/mL (≈ 0.0935 µM) and the MIC (Pseudomonas aeruginosa [12]) was 4 µg/mL (≈ 6.24 µM). It also gave an MIC (Pseudomonas aeruginosa [13]) of 0.015 µg/mL (≈ 0.0234 µM), an MIC (Providencia stuartii [14]) of 4 µg/mL (≈ 6.24 µM) and an MIC (Providencia stuartii [15]) of 0.125 µg/mL (≈ 0.195 µM). The MIC (Staphylococcus aureus [16]) was 2 µg/mL (≈ 3.12 µM) and the MIC (Pseudomonas aeruginosa [17]) was 0.008 µg/mL (≈ 0.0125 µM).
Molecule `CC(C)(O/N=C(\C(=O)N[C@@H]1C(=O)N2C(C(=O)O)=C(CCNC(=O)Nc3ccc(O)c(O)c3)CSC12)c1csc(N)n1)C(=O)O` (some centres not stated) has an MIC (Staphylococcus aureus [1]) of 64 µg/mL (≈ 98.5 µM), an MIC (Citrobacter freundii [2]) of 8 µg/mL (≈ 12.3 µM) and an MIC (Citrobacter freundii [3]) of 0.25 µg/mL (≈ 0.385 µM). It also gave an MIC (Enterobacter cloacae [4]) of 64 µg/mL (≈ 98.5 µM), an MIC (Escherichia coli [5]) of 0.06 µg/mL (≈ 0.0924 µM) and an MIC (Enterobacter cloacae [6]) of 16 µg/mL (≈ 24.6 µM). The MIC (Enterobacter cloacae [7]) was 0.5 µg/mL (≈ 0.77 µM), the MIC (Enterobacter cloacae [8]) was 1 µg/mL (≈ 1.54 µM) and the MIC (Escherichia coli [9]) was 0.015 µg/mL (≈ 0.0231 µM). For the same molecule, the MIC (Pseudomonas aeruginosa [10]) was 0.125 µg/mL (≈ 0.192 µM), the MIC (Pseudomonas aeruginosa [11]) was 0.125 µg/mL (≈ 0.192 µM) and the MIC (Pseudomonas aeruginosa [12]) was 0.125 µg/mL (≈ 0.192 µM). It also gave an MIC (Pseudomonas aeruginosa [13]) of 0.125 µg/mL (≈ 0.192 µM), an MIC (Providencia stuartii [14]) of 16 µg/mL (≈ 24.6 µM) and an MIC (Providencia stuartii [15]) of 2 µg/mL (≈ 3.08 µM). The MIC (Staphylococcus aureus [16]) was 64 µg/mL (≈ 98.5 µM) and the MIC (Pseudomonas aeruginosa [17]) was 0.125 µg/mL (≈ 0.192 µM).
With `CC(C)(O/N=C(\C(=O)N[C@@H]1C(=O)N2C(C(=O)O)=C(CNC(=O)c3cnc4cc(O)c(O)cc4n3)CSC12)c1csc(N)n1)C(=O)O` (some centres not stated) the MIC (Pseudomonas aeruginosa [20]) was 0.008 µg/mL (≈ 0.0119 µM), the MIC (Citrobacter freundii [2]) was 1 µg/mL (≈ 1.49 µM) and the MIC (Citrobacter freundii [3]) was 8 µg/mL (≈ 11.9 µM). The MIC (Enterobacter cloacae [4]) was 8 µg/mL (≈ 11.9 µM), the MIC (Enterobacter cloacae [6]) was 0.5 µg/mL (≈ 0.743 µM) and the MIC (Enterobacter cloacae [7]) was 0.03 µg/mL (≈ 0.0446 µM). For the same molecule, the MIC (Enterobacter cloacae [8]) was 0.03 µg/mL (≈ 0.0446 µM), the MIC (Pseudomonas aeruginosa [10]) was 0.008 µg/mL (≈ 0.0119 µM) and the MIC (Pseudomonas aeruginosa [12]) was 0.008 µg/mL (≈ 0.0119 µM). It also gave an MIC (Providencia stuartii [14]) of 8 µg/mL (≈ 11.9 µM), an MIC (Providencia stuartii [15]) of 0.25 µg/mL (≈ 0.372 µM) and an MIC (Pseudomonas aeruginosa [17]) of 0.008 µg/mL (≈ 0.0119 µM).
`CC(C)(O/N=C(\C(=O)N[C@@H]1C(=O)N2C(C(=O)O)=C(CCc3ccc(O)c(O)c3)CSC12)c1csc(N)n1)C(=O)O` (some centres not stated) showed an MIC (Staphylococcus aureus [21]) of 8 µg/mL (≈ 13.5 µM), an MIC (Staphylococcus aureus [22]) of 16 µg/mL (≈ 27 µM) and an MIC (Citrobacter freundii [2]) of 16 µg/mL (≈ 27 µM). The MIC (Citrobacter freundii [3]) was 0.25 µg/mL (≈ 0.423 µM), the MIC (Enterobacter cloacae [4]) was 32 µg/mL (≈ 54.1 µM) and the MIC (Escherichia coli [5]) was 0.125 µg/mL (≈ 0.211 µM). For the same molecule, the MIC (Enterobacter cloacae [6]) was 32 µg/mL (≈ 54.1 µM), the MIC (Enterobacter cloacae [7]) was 0.5 µg/mL (≈ 0.845 µM) and the MIC (Enterobacter cloacae [8]) was 4 µg/mL (≈ 6.76 µM). For the same molecule, the MIC (Escherichia coli [9]) was 0.03 µg/mL (≈ 0.0507 µM), the MIC (Pseudomonas aeruginosa [10]) was 0.03 µg/mL (≈ 0.0507 µM) and the MIC (Pseudomonas aeruginosa [11]) was 0.25 µg/mL (≈ 0.423 µM). For the same molecule, the MIC (Pseudomonas aeruginosa [12]) was 0.125 µg/mL (≈ 0.211 µM), the MIC (Pseudomonas aeruginosa [13]) was 0.06 µg/mL (≈ 0.101 µM) and the MIC (Providencia stuartii [14]) was 8 µg/mL (≈ 13.5 µM). The MIC (Providencia stuartii [15]) was 2 µg/mL (≈ 3.38 µM) and the MIC (Pseudomonas aeruginosa [17]) was 0.125 µg/mL (≈ 0.211 µM).
With `CC(C)(O/N=C(\C(=O)N[C@@H]1C(=O)N2C(C(=O)O)=C(CCNC(=O)CNC(=O)c3cc(O)c(O)c(Br)c3)CSC12)c1csc(N)n1)C(=O)O` (some centres not stated) the MIC (Staphylococcus aureus [21]) was 8 µg/mL (≈ 10.4 µM), the MIC (Staphylococcus aureus [22]) was 16 µg/mL (≈ 20.8 µM) and the MIC (Citrobacter freundii [2]) was 8 µg/mL (≈ 10.4 µM). For the same molecule, the MIC (Citrobacter freundii [3]) was 0.015 µg/mL (≈ 0.0195 µM), the MIC (Enterobacter cloacae [4]) was > 32 µg/mL and the MIC (Escherichia coli [5]) was 0.015 µg/mL (≈ 0.0195 µM). For the same molecule, the MIC (Enterobacter cloacae [6]) was 8 µg/mL (≈ 10.4 µM), the MIC (Enterobacter cloacae [7]) was 0.06 µg/mL (≈ 0.0779 µM) and the MIC (Enterobacter cloacae [8]) was 0.06 µg/mL (≈ 0.0779 µM). For the same molecule, the MIC (Escherichia coli [9]) was 0.015 µg/mL (≈ 0.0195 µM), the MIC (Pseudomonas aeruginosa [10]) was 0.008 µg/mL (≈ 0.0104 µM) and the MIC (Pseudomonas aeruginosa [11]) was 0.015 µg/mL (≈ 0.0195 µM). For the same molecule, the MIC (Pseudomonas aeruginosa [12]) was 0.5 µg/mL (≈ 0.649 µM), the MIC (Pseudomonas aeruginosa [13]) was 0.008 µg/mL (≈ 0.0104 µM) and the MIC (Providencia stuartii [14]) was 4 µg/mL (≈ 5.19 µM). It also gave an MIC (Providencia stuartii [15]) of 0.125 µg/mL (≈ 0.162 µM) and an MIC (Pseudomonas aeruginosa [17]) of 0.008 µg/mL (≈ 0.0104 µM).
In the case of `CCO/N=C(\C(=O)N[C@@H]1C(=O)N2C(C(=O)O)=C(CNC(=O)c3cn(CC)c4cc(O)c(O)cc4c3=O)CSC12)c1csc(N)n1` (some centres not stated), the MIC (Staphylococcus aureus [1]) is reported as 1 µg/mL (≈ 1.52 µM), the MIC (Citrobacter freundii [2]) is reported as 0.5 µg/mL (≈ 0.76 µM) and the MIC (Citrobacter freundii [3]) is reported as 0.008 µg/mL (≈ 0.0122 µM). The MIC (Enterobacter cloacae [4]) was 32 µg/mL (≈ 48.7 µM), the MIC (Escherichia coli [5]) was 0.008 µg/mL (≈ 0.0122 µM) and the MIC (Enterobacter cloacae [6]) was 1 µg/mL (≈ 1.52 µM). For the same molecule, the MIC (Enterobacter cloacae [7]) was 0.015 µg/mL (≈ 0.0228 µM), the MIC (Enterobacter cloacae [8]) was 0.03 µg/mL (≈ 0.0456 µM) and the MIC (Escherichia coli [9]) was 0.008 µg/mL (≈ 0.0122 µM). It also gave an MIC (Pseudomonas aeruginosa [10]) of 0.008 µg/mL (≈ 0.0122 µM), an MIC (Pseudomonas aeruginosa [11]) of 0.06 µg/mL (≈ 0.0912 µM) and an MIC (Pseudomonas aeruginosa [12]) of 0.25 µg/mL (≈ 0.38 µM). The MIC (Pseudomonas aeruginosa [13]) was 0.015 µg/mL (≈ 0.0228 µM), the MIC (Providencia stuartii [14]) was 2 µg/mL (≈ 3.04 µM) and the MIC (Providencia stuartii [15]) was 0.06 µg/mL (≈ 0.0912 µM). It also gave an MIC (Staphylococcus aureus [16]) of 2 µg/mL (≈ 3.04 µM) and an MIC (Pseudomonas aeruginosa [17]) of 0.008 µg/mL (≈ 0.0122 µM).
